From the NIST ThermoML archive (doi:10.1016/j.jct.2012.06.028)
Numbers after ± are expanded uncertainties.

Columns and labels:
[1] = 298.15 K; 101.33 kPa; Liquid; Vibrating tube method
[2] = refractive index (Na D-line) (dimensionless); conditions: 298.15 K; 101.33 kPa; Liquid; Standard Abbe refractometry

SMILES	mass density [1] [kg/m3]	refractive index [2]
CCCC[n+]1cccc(C)c1.O=S(=O)([O-])C(F)(F)F [1-butyl-3-methylpyridinium trifluoromethanesulfonate]	1279.77 ± 0.47	1.46138 ± 0.0007
CCCC[n+]1cccc(C)c1.O=S(=O)([N-]S(=O)(=O)C(F)(F)F)C(F)(F)F	1414.76 ± 0.6	1.44595 ± 0.0007
CCCCCC [hexane]	655.2 ± 0.26	1.37241 ± 0.0007
CCO [ethanol]	785.44 ± 0.13	1.35936 ± 0.00068
CCn1cc[n+](C)c1.O=S(=O)([N-]S(=O)(=O)C(F)(F)F)C(F)(F)F	1518.74 ± 0.7	1.42307 ± 0.0007
CCCC[n+]1ccn(C)c1.O=S(=O)([N-]S(=O)(=O)C(F)(F)F)C(F)(F)F	1436.1 ± 0.62	1.42672 ± 0.0007
